A short description of data set [1]: Cell activity (MTT) after treatment with acetaldehyde alone. Type of data set: cell-based. Particulars: human, ca9-22 cells, 1 day, T/NT. The source says: The absorbance of each well at 550nm was detected by a microplate reader. […] NT was taken as 100%, and the ratio of T/NT of the sample well was taken as the cell activity, the results of which are shown in Table 3. On the basis of meeting the requirements of significant difference, the greater the cell activity %, the better the effect of inhibiting cell damage caused by acetaldehyde. Table 3 Cell activity results

In data set [2] the test system is CA9-22 cells. Kind of data set: Cell activity (MTT) of acetaldehyde-treated cells with ectoine. Type of data set: cell-based. As for the experimental part:
Experimental sample solution: ectoine powder and 17.7 M acetaldehyde were diluted with DMEM culture medium respectively, and then the two were mixed in different ratios to prepare experimental sample solutions with different final concentrations.
The absorbance of each well at 550nm was detected by a microplate reader. […] NT was taken as 100%, and the ratio of T/NT of the sample well was taken as the cell activity. The larger the cell activity %, the better the effect of inhibiting cell damage caused by acetaldehyde. Table 4 Cell activity results

In data set [3] the test system is CA9-22 cells. Kind of data set: in vitro. The method, then: (§1) Experimental sample solutions: ectoine powder was dissolved in DMEM culture medium to prepare experimental sample solutions with different final concentrations, and the concentrations were shown in Table 2.
(§2) Methods: CA9-22 cells purchased from ATCC were co-cultured with different experimental sample solutions for 1 day, then the experimental sample solution was removed and MTT was added. After 3 hours, the supernatant was carefully sucked out and dimethyl sulfoxide (DMSO) was added. The absorbance of each well at 550 nm was detected by a microplate reader. The untreated well was used as the control, the absorbance of the sample well was defined as T, and the absorbance of the untreated well was defined as NT. NT was taken as 100%, and the ratio of T/NT of the sample wells was taken as the cell activity. Table 2 Cell activity results

The nature of a further data set: in vitro. The note with it: human, ca9-22 cells, Cell activity. As for the experimental part:
as §1, §2

For data set [4], the system named is HGF-1 cells. Kind of data set: TNF-α generation under CSE induction (ELISA). Type of data set: cell-based. Particulars: 24 h pre-incubation, 5% CSE 24 h, vs control group (FIG. 2). As for the experimental part:
Ectoine (purchased from Bloomage Biotechnology) was weighed separately and dissolved in HGF-1 cell complete culture medium (containing 10% FBS, 1% penicillin-streptomycin), to prepare 100 µg/mL and 500 µg/mL ectoine solutions, respectively.
(§3) Preparation of Cigarette Smoke Extract (CSE): The gas collection bottle was sterilized and the HGF-1 cell culture medium was filled into the gas collection bottle. A certain brand of cigarette was fixed on the long tube end of the gas collection bottle, and the short tube end was connected to a vacuum pump. The vacuum pump was turned on and the cigarette was lighted, so that the cigarette smoke entered the culture medium from the long tube end. In this way, cigarette smoke extract was prepared.
Test method: HGF-1 cells were seeded into a 96-well plate at a density of 30,000 cells/well and cultured at 37°C under 5% CO2 for later use. […] The secretion of TNF-α was detected using an ELISA detection kit. At the same time as the ELISA detection, cell lysate was added to the 96-well plate and centrifugation was performed, and the supernatant was taken for BCA protein quantification. After homogenization, the control group was used as a benchmark, and the relative content of TNF-α was expressed as a percentage. […]
(An ELISA detects its analyte on a solid surface through an enzyme-linked reagent.)

In data set [5] the test system is CA9-22 cells. Kind of data set: Inflammatory factor IL-6 induced by Pg.LPS (ELISA). Particulars: vs Pg.LPS alone (FIG. 3). Type of data set: cell-based. As for the experimental part: Experimental materials: Porphyromonas gingivalis lipopolysaccharide (Pg.LPS) (purchased from Sigma), ectoine (from Bloomage Biotechnology Corporation Limited), and DMEM culture medium.
Experimental sample solution: ectoine and Porphyromonas gingivalis lipopolysaccharide were diluted with DMEM culture medium to prepare an experimental sample solution containing a final concentration of 0.001 wt% ectoine + 1 µg/ml Pg.LPS.
CA9-22 cells were cultured in a 24-well plate. After complete attachment, the above experimental sample was added. After 24 hours, the cell culture supernatant was collected. The absorbance at […] and 570 nm was detected by enzyme-linked immunosorbent assay (ELISA), and the concentration of inflammatory factor IL-6 was calculated based on the absorbance.
According to the method in Example 2.1, an experimental sample solution containing a final concentration of 0.01wt% ectoine + 1µg/ml Pg.LPS was prepared, and the concentration of the inflammatory factor IL-6 was calculated. Other experimental processes not mentioned were the same as those in Example 2.1.
According to the method in Example 2.1, an experimental sample solution containing a final concentration of 0.05wt% ectoine+1µg/ml Pg.LPS was prepared, and the concentration of the inflammatory factor IL-6 was calculated. Other experimental processes not mentioned were the same as those in Example 2.1.
Statistical analysis: t-test statistical analysis was used to compare each group with group treated with Pg.LPS alone. * indicates p<0.05, which is considered to be of statistical difference. ** indicates p<0.01, which is considered to be of significant statistical difference, and *** indicates p<0.001, which is considered to be of extremely significant statistical difference.
Experimental materials: Porphyromonas gingivalis lipopolysaccharide (Pg.LPS) (purchased from Sigma), ACHA (from Bloomage Biotechnology Corporation Limited), and DMEM culture medium. […]

For data set [6], the system named is HGF-1 cells. The data set is described as follows: ROS generation under CSE induction (DCFH-DA fluorescence). Type of data set: cell-based. The note with it: 24 h pre-incubation, 5% CSE 3 h, vs control group (FIG. 1). As for the experimental part:
Ectoin (purchased from Bloomage Biotechnology) was weighed and dissolved in HGF-1 cell (gingival fibroblast) complete culture medium (containing 10% FBS, 1% penicillin-streptomycin), to prepare 100 µg/mL and 500 µg/mL ectoine solutions, respectively.
as §3
Test method: Preparation of a DCFH-DA solution with a final concentration of 10 µM using phenol red-free culture medium.
HGF-1 cells were seeded into a 96-well plate at a density of 30,000 cells/well and cultured at 37°C under 5% CO2 for later use. After 24 hours for cell attachment, a blank group, a control group, and an experimental group containing 100µg/mL and […] ectoine, respectively, were set up, with 100µL/well. […] The fluorescence intensity was measured at an excitation wavelength of 485nm and an emission wavelength of 538nm. […]

As for `CC=O` [Acetaldehyde, acetaldehyde], in data set [1] (Acetaldehyde 0.0001M), the viability at 24 h, 100 µM is 96%. In data set [1] (Acetaldehyde 0.001M), the viability at 24 h, 1000 µM amounted to 93%. In data set [1] (Acetaldehyde 0.005M), the viability at 24 h, 5000 µM came to 93%. Besides, the viability at 24 h, 10000 µM in data set [1] (Acetaldehyde 0.01M) came out at 89%. In data set [1] (Acetaldehyde 0.02M), the viability at 24 h, 20000 µM amounted to 70%. In addition, in the data set on CA9-22 cells [2] (Homo sapiens, Ca9-22, 24 h, read-out: Cell activity), the viability at 20000 µM is 70%.
Regarding `CC1=NC(C(=O)O)CCN1` (stereo not shown) [ectoine, 2-methyl-1,4,5,6-tetrahydropyrimidin-4-carboxylic acid], the cytotoxicity result in the data set with CA9-22 cells [3] is recorded as “no cytotoxicity”. Moreover, the viability at 24 h in “in vitro” was found to be 112%. Besides, the “TNF-α content after CSE irritation” value in the data set with HGF-1 cells [4] (100µg/mL ectoine) and in the data set on HGF-1 cells [4] (500µg/mL ectoine) was “can inhibit the increase of TNF-α content” throughout. Further, the “concentration of IL-6 caused by Pg.LPS” value is “can significantly reduce the concentration of IL-6” in the data set on CA9-22 cells [5] (0.001wt% ectoine + 1 µg/ml Pg.LPS, 24 h (Example 2.1)); “can significantly reduce the concentration of IL-6” in the data set on CA9-22 cells [5] (0.01wt% ectoine + 1µg/ml Pg.LPS, 24 h (Example 2.2)); “can significantly reduce the concentration of IL-6” with CA9-22 cells [5] (0.05wt% ectoine + 1µg/ml Pg.LPS, 24 h (Example 2.3)). For the same compound, the “cell activity of CA9-22 after the addition of ectoine” value with CA9-22 cells [2] (Acetaldehyde 0.02 M + ectoine 0.02-0.1 wt%, vs acetaldehyde-treated group) is on record as “increased”. Also, the “ROS content after CSE oxidative irritation” value in the data set with HGF-1 cells [6] (100µg/mL ectoine) and with HGF-1 cells [6] (200µg/mL ectoine) was “can inhibit the increase of ROS content” in each case.
